Source: patent EP4722219A1 (Gan & Lee Pharmaceuticals Co., Ltd., priority 2023, dated 2024)

How the values were obtained:
Type in all cases: cell-based
[1] = biological target: T1, SMARCA2 (Homo sapiens, UniProt P51531); experiment: SMARCA2 degradation in SW1573 cells (Western blot); parameters: endogenous in cells; host or cells: SW1573; details: 24 hours
Description: (§1) Test Example 10 Degradation rate (%) of SMARCA2/4 by the PROTAC compounds of the present invention in HeLa cells and SW1573 cells
SW1573 cells were seeded at 2x10^5Cells/well in a 6-well plate. 2 mL of EMEM medium supplemented with 10% FBS was added to each well and was incubated overnight to allow cell attachment. The next day, 1 µL of 160 µM and 1 µL of 2 µM compound were added to the corresponding wells for treatment, resulting in final compound concentrations of 80 nM and 1 nM, respectively, and a final DMSO concentration of 0.05%. The cells were returned to the incubator and incubated for another 24 hours.
(§2) After 24 hours, cells were harvested, the medium was aspirated, and the cells were rinsed once with 1 mL/well PBS. The PBS was aspirated, and 40 µL/well of RIPA lysis buffer containing protease inhibitors was added. After lysis and centrifugation, total protein extracts were obtained, and protein concentration in the extracts was determined by BCA assay. Protein electrophoresis was performed by SDS-PAGE, followed by constant voltage electrophoresis at 100 V for 60 minutes and the protein was then transferred to a PVDF membrane. The PVDF membrane was blocked in 5% skim milk powder for 1 hour at room temperature. Primary antibodies (SMARCA2: CST#11966S, SMARCA4: CST#49360S, GAPDH: CST#5174S) were added and incubated overnight at 4°C. After washing the membrane, secondary antibodies were added and incubated at room temperature for 1 hour (protected from the light). After washing, the membrane was exposed using an Odyssey luminometer. Grayscale analysis of bands was performed using Image Studio software.
(§3) The degradation rate (%) of SMARCA2/4 by the PROTAC compounds of the present invention in HeLa cells and SW1573 cells is shown in Table 10. Table 10 Degradation rate of SMARCA2/4 by PROTAC compounds of the present invention in HeLa cells and SW1573 cells (%)

[2] = biological target: SMARCA4 (Homo sapiens, UniProt P51532); experiment: SMARCA4 degradation in SW1573 cells (Western blot); parameters: endogenous in cells; host or cells: SW1573; details: 24 hours; for Dmax at 0.001 µM / Dmax at 0.08 µM: read-out: Degradation rate of SMARCA4 in SW1573 cells (%)
Description: SW1573 cells were seeded at 2x10^5Cells/well in a 6-well plate. 2 mL of EMEM medium supplemented with 10% FBS was added to each well and was incubated overnight to allow cell attachment. […] The cells were returned to the incubator and incubated for another 24 hours.
as §2, with “Primary antibodies (SMARCA2: CST#11966S, SMARCA4: CST#49360S, GAPDH: CST#5174S) were added and incubated overnight at 4°C.” left out
as §3

[3] = biological target: T1, SMARCA2; experiment: SMARCA2 degradation in HeLa cells (Western blot); parameters: endogenous in cells; details: 4 hours
Description: as §1
HeLa cells were seeded at 1.2 x 10^5 cells/well in a 6-well plate. 2 mL of EMEM medium supplemented with 10% FBS was added to each well and the culture dish was incubated overnight to allow the cells to adhere. The next day, 1 µL of 160 µM and 1 µL of 2 µM compound were added to the corresponding wells, resulting in final compound concentrations of 80 nM and 1 nM, respectively, and a final DMSO concentration of 0.05%. The cells were returned to the incubator and incubated for another 4 hours.
as §2, with “After 4 hours, cells” for “After 24 hours, cells”, “harvested, the culture medium was” for “harvested, the medium was”
as §3

Sequence of SMARCA4 (P51532 whole entry): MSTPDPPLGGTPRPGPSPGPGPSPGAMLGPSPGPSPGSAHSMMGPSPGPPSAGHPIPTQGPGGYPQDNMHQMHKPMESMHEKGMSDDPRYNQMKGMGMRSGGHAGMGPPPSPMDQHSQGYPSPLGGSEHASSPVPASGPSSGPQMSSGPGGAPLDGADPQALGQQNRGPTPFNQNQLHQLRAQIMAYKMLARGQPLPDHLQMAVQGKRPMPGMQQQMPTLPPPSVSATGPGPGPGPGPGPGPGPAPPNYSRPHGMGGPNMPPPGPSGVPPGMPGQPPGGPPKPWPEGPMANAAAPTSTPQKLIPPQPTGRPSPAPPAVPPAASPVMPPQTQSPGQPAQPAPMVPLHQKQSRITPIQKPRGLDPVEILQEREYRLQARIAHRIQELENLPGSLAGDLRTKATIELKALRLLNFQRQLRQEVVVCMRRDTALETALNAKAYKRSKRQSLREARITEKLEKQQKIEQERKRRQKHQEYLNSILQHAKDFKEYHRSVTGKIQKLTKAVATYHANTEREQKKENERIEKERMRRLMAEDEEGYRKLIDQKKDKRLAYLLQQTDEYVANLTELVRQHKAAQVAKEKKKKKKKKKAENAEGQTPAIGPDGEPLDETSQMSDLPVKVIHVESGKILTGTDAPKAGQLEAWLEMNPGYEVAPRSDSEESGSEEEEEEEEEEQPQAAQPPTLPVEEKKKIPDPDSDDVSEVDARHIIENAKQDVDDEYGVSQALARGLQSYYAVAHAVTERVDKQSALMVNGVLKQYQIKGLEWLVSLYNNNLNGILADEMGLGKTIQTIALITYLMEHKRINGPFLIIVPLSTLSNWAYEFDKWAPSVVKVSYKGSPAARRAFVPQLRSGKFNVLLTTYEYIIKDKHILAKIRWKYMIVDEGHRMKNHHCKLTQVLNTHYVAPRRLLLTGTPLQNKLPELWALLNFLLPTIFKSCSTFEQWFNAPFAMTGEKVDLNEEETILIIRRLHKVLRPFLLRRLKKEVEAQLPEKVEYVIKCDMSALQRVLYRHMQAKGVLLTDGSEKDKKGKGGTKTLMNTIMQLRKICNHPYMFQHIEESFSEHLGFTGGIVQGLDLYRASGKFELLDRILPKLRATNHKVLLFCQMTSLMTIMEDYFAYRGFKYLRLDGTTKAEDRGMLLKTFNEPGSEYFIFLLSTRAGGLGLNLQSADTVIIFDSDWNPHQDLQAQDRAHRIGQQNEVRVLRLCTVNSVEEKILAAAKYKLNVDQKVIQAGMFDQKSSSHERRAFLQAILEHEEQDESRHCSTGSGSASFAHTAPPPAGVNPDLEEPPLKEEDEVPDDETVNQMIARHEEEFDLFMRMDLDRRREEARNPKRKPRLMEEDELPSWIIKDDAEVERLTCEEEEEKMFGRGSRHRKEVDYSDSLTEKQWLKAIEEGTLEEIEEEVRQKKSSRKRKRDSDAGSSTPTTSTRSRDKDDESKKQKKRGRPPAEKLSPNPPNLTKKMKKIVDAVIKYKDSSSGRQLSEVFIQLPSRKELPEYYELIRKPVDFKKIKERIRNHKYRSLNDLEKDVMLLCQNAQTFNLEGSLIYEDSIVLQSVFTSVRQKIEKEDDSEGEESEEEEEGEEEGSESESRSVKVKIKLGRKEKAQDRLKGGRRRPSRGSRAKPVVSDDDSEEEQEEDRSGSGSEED
T1 sequence (P51531 whole entry): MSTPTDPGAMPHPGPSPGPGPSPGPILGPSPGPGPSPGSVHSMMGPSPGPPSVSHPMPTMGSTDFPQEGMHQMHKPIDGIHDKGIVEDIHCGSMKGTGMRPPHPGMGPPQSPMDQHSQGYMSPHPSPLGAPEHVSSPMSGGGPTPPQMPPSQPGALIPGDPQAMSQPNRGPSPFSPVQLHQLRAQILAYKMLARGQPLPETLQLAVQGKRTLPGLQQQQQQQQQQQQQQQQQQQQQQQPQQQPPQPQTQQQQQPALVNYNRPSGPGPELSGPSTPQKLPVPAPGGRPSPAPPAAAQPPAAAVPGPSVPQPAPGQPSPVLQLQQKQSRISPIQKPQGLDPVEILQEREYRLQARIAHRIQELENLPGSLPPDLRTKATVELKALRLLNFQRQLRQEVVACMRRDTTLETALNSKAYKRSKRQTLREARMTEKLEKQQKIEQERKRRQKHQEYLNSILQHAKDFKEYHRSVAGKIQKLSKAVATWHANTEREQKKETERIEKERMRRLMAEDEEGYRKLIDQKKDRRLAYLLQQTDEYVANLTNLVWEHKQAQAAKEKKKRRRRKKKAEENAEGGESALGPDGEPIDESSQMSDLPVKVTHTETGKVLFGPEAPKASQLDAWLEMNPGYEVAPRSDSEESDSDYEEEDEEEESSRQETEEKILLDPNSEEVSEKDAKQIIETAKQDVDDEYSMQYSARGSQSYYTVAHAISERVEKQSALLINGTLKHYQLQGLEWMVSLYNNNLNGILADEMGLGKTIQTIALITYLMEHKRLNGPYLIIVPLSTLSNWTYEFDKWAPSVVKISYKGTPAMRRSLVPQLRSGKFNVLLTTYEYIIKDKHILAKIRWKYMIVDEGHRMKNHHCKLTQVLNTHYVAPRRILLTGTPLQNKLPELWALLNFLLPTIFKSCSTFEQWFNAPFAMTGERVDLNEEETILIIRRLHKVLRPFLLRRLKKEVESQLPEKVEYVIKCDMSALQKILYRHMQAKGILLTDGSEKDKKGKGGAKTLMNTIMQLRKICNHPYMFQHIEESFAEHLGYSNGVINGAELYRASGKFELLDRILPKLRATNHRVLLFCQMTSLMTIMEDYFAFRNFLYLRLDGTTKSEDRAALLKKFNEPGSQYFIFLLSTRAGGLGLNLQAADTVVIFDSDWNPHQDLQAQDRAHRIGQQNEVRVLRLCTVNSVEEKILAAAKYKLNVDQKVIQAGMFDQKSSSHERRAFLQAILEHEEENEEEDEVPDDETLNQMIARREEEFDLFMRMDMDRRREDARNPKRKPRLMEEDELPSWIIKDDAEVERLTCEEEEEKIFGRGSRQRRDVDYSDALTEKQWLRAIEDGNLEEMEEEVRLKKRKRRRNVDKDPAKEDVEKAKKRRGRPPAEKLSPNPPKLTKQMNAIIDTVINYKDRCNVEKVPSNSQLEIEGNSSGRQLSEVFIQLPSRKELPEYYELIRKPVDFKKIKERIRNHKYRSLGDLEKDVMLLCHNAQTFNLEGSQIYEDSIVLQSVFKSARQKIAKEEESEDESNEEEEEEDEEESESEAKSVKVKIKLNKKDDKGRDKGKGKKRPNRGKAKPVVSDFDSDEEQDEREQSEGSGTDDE

Row | SMILES | Degradation rate of SMARCA2 in SW1573 cells (%) ([1]; 1 nM) | Degradation rate of SMARCA2 in SW1573 cells (%) ([1]; 80 nM) | Dmax at 0.001 µM ([2]; 1 nM) | Dmax at 0.08 µM ([2]; 80 nM) | Degradation rate of SMARCA4 in SW1573 cells (%) ([2]; 1 nM) | Degradation rate of SMARCA4 in SW1573 cells (%) ([2]; 80 nM) | Degradation rate of SMARCA2 in HeLa cells (%) ([3]; 1 nM) | Degradation rate of SMARCA2 in HeLa cells (%) ([3]; 80 nM)
1 | Nc1nnc(-c2ccccc2O)cc1C#CC1CCC2(CC1)CC(N1CCN3c4ccc(C(=O)N[C@H]5CCC(=O)NC5=O)c(F)c4OC[C@H]3C1)C2 (stereo partly shown) [SM-P-22] | -9% | 28% | 14% | 4% | – | – | – | –
2 | Nc1nnc(-c2ccccc2O)cc1C#CC1CCC2(CC1)CC(N1CCN3c4cc(F)c(C(=O)N[C@H]5CCC(=O)NC5=O)cc4OC[C@H]3C1)C2 (stereo partly drawn) [SM-P-6, (R)-3-(7-((3-amino-6-(2-hydroxyphenyl)pyridazin-4-yl)ethynyl)spiro[3.5]nonan-2-yl)-n-((S)-2,6-dioxopiperidin-3-yl)-9-fluoro-1,2,3,4,4a,5-hexahydrobenzo[b]pyrazi no[1,2-d][1,4]oxazine-8-carboxamide] | 20% | 34% | – | – | -30% | -41% | – | –
3 | Cn1c(=O)n(C2CCC(=O)NC2=O)c2cc3c(cc21)C1(CCN(C2CC4(CCC(C#Cc5cc(-c6ccccc6O)nnc5N)CC4)C2)CC1)CO3 (stereo not shown) [SM-P-4, 3-(1'-(7-((3-amino-6-(2-hydroxyphenyl)pyridazin-4-yl)ethynyl)spiro[3.5]nonan-2-yl)-1-methyl-2-oxo-1,2-dihydro-3H,6H-spiro[benzofuro[5,6-d]imidazole-7,4'-piperidin]-3-yl)piperidine-2,6-dione] | 100% | 100% | – | – | – | – | 100% | 99%
4 | Cc1ncsc1-c1ccc([C@H](C)NC(=O)[C@@H]2C[C@@H](O)CN2C(=O)[C@@H](NC(=O)[C@H]2CC[C@H](CN3CC4(CCC(n5cc(-c6cc(-c7ccccc7O)nnc6N)cn5)CC4)C3)CC2)C(C)(C)C)cc1 [SMD-3040, (2S,4R)-1-((S)-2-((1R,4S)-4-((7-(4-(3-amino-6-(2-hydroxyphenyl)pyridazin-4-yl)-1H-pyrazol-1-yl)-2-azaspiro[3.5]nonan-2-yl)methyl)cyclohexane-1-carboxamido)-3,3-dimethylbutanoyl)-4-hydroxy-N-((S)-1-(4-(4-methylthiazol-5-yl)phenyl)ethyl)pyrrolidine-2-carboxamide, reference compound] | 89% | 99% | – | – | 21% | 86% | – | –
5 | Nc1nnc(-c2ccccc2O)cc1C#CC1CCC2(CC1)CC(N1CCN3c4cc(NC5CCC(=O)NC5=O)ccc4OCC[C@H]3C1)C2 (stereo partly shown) [SM-P-17] | 12% | 72% | -18% | 12% | – | – | – | –
6 | Nc1nnc(-c2ccccc2O)cc1C#CC1CCC2(CC1)CC(N1CCC3(CC1)COc1cc(F)c(C(=O)N[C@H]4CCC(=O)NC4=O)cc13)C2 (stereo partly shown) [SM-P-21] | -12% | 14% | – | – | – | – | 15% | 4%
7 | Cn1c(=O)n(C2CCC(=O)NC2=O)c2ccc3c(c21)OCC31CCN(C[C@H]2CC[C@H](Cn3cc(-c4cc(-c5ccccc5O)nnc4N)cn3)CC2)CC1 (stereo partly shown) [SM-P-29, 3-(1'-(((1r,4r)-4-((4-(3-amino-6-(2-hydroxyphenyl)pyridazin-4-yl)-1H-pyrazol-1-yl)methyl)cyclohexyl)methyl)-1-methyl-2-oxo-1,2-dihydro-3H,7H-spiro[benzofuro[6,7-d]imidazole-6,4'-piperidin]-3-yl)piperidine-2,6-dione] | 100% | 99% | – | – | – | – | 100% | 90%
8 | Cn1c(=O)n(C2CCC(=O)NC2=O)c2cc3c(cc21)C1(CCN(C2CN(c4cc(-c5ccccc5O)nnc4N)C2)CC1)CO3 (stereo not shown) [SM-P-38, 3-(1'-(1-(3-amino-6-(2-hydroxyphenyl)pyridazin-4-yl)azetidin-3-yl)-1-methyl-2-oxo-1,2-dihydro-3H,6H-spiro[benzofuro[5,6-d]imidazole-7,4'-piperidin]-3-yl)piperidine-2,6-dione] | 24% | 29% | – | – | – | – | -6% | 10%
9 | CN(C(=O)c1ccc2c(c1)OC[C@H]1CN(C3CC4(CCC(C#Cc5cc(-c6ccccc6O)nnc5N)CC4)C3)CCN21)[C@H]1CCC(=O)NC1=O (stereo partly shown) [SM-P-18] | 16% | 25% | -32% | -34% | – | – | – | –
10 | Nc1nnc(-c2ccccc2O)cc1C#CC1CCC2(CC1)CC(N1CCC3(CC1)COc1cc(NC4CCC(=O)NC4=O)ccc1C3)C2 (stereo not shown) [SM-P-23, 3-((1'-(7-((3-amino-6-(2-hydroxyphenyl)pyridazin-4-yl)ethynyl)spiro[3.5]nonan-2-yl)spiro[chromane-3,4'-piperidin]-7-yl)amino)piperidine-2,6-dione] | 38% | 95% | -14% | 93% | – | – | – | –
